Results taken from publication PMC2677215 (Biochemical Journal, 2009).

Tests used:
Experiment in all cases: radiometric citrulline NOS assay
Assay type in all cases: biochemical
[1] = target: T1, Physarum NOS form B (clone B+; physnosb) (Badhamia polycephala, UniProt A6XKZ6)
[2] = target: T2, Physarum NOS form A (clone A1; physnosa) (Badhamia polycephala, UniProt A6XKZ4)
[3] = target: T2, Physarum NOS form A (clone A1; physnosa); remark: listed apart in the source
[4] = target: T1, Physarum NOS form B (clone B+; physnosb); remark: listed apart in the source

Row | SMILES | EC50 [1] [µM] | EC50 [2] [µM] | IC50 [3] [µM] | IC50 [4] [µM]
1 | Cc1cc2nc3c(=O)[nH]c(=O)nc-3n(C[C@H](O)[C@H](O)[C@H](O)COP(=O)(O)OP(=O)(O)OC[C@H]3O[C@@H](n4cnc5c(N)ncnc54)[C@H](O)[C@@H]3O)c2cc1C [FAD] | 2.1 ± 1.6 | 3.9 ± 1.6 | – | –
2 | Cc1cc2nc3c(=O)[nH]c(=O)nc-3n(C[C@H](O)[C@H](O)[C@H](O)COP(=O)(O)O)c2cc1C [FMN] | 0.2 ± 0.2 | 1.7 ± 0.6 | – | –
3 | N=C(NCCC[C@H](N)C(=O)O)N[N+](=O)[O-] [L-NNA, N^ω-nitro-L-arginine] | – | – | 25.7 ± 10.7 | 39.8 ± 20.3

The remaining lines, values ahead:

Row | EC50 [1] [µM] | EC50 [2] [µM] | IC50 [3] [µM] | IC50 [4] [µM] | SMILES
4 | 0.7 ± 0.1 | 7.9 ± 1.2 | – | – | C[C@H](O)[C@H](O)[C@H]1CNc2nc(N)[nH]c(=O)c2N1 [H4-bip, 6R-5,6,7,8-tetrahydro-L-biopterin]
5 | – | – | 81.3 ± 7.8 | 76.7 ± 4.3 | CC(=N)NCCCC[C@H](N)C(=O)O [L-NIL, L-N6(1-iminoethyl)-lysine]
6 | – | – | 45.2 ± 23.5 | 44.3 ± 19.2 | CNC(=N)NCCC[C@H](N)C(=O)O [L-NMMA, N^ω-methyl-L-arginine]
7 | 60.3 ± 13.8 | 57.2 ± 6.5 | – | – | NC(=O)C1=CN([C@@H]2O[C@H](COP(=O)(O)OP(=O)(O)OC[C@H]3O[C@@H](n4cnc5c(N)ncnc54)[C@H](OP(=O)(O)O)[C@@H]3O)[C@@H](O)[C@H]2O)C=CC1 [NADPH]
